Patent US10071983B2, “Activatable fluorogenic compounds and uses thereof as near infrared probes” (Ramot at Tel-Aviv University Ltd., priority 2011, dated 2018)
Several values for one entry are separate records, joined by “and”; a condition that tells them apart may be missing. Equal values may be shown once.

What was measured:
[1] = Extinction coefficient calculation (absorbance vs concentration); type: physicochemical
Source text: FIG. 7 presents linear plots of QCy7 as measured at 1 cm cuvette, at the indicated concentrations in PBS 7.4, at the maximum wavelength of QCy7 (560 nm). εQCy7=26848[M^−1cm^−1]
FIG. 10 presents linear plots of Sulfo-QCy7 as measured at 1 cm cuvette, at the indicated concentrations in PBS 7.4, at the maximum wavelength of Sulfo-QCy7 (590 nm). εSulfo-QCy7=52235[M^−1cm^−1]

HeLa cells [2] = assay: Cell permeability, confocal imaging of HeLa cells; type: cell-based
Procedure: HeLa cells were incubated overnight with Compound 9 in PBS 7.4, and the cells was thereafter imaged by confocal microscope.
A colocalization assay of Compound 25 was conducted with the lysosome marker lysosensor. Sample was excited with a 561 nm laser line and fluorescence acquired from 570 nm to 800 nm.

[3] = NIR fluorescence emission spectrum of dye compounds; type: physicochemical; details: PBS 7.4 [50 μM], excitation 570 nm, cutting filter >690 nm
[4] = as above; type: physicochemical; details: for fluorescence emission peak in the NIR region: PBS 7.4; for λmax: Table 1, λmax (fluorescence emission)
Source text: (§1) Compound 1 (which generates the dye compound QCy7 deprotonation) was obtained as an orange crystalline powder. FIGS. 4A and 4B present the UV-Vis spectrum of Compound 1 (FIG. 4A), compared to that of the acetate Compound 3 (FIG. 4B). […] The obtained large stokes shift between the excitation and the emission wavelengths of about 150 nm is a desirable feature for fluorescence probes, which assists in increasing the signal-to-noise ratio.
(§2) FIG. 5 presents the data obtained for fluorescence intensity vs. wavelength of standard sample (Cresyl violet; FIG. 5A), and test sample (QCy7; FIG. 5B), at the indicated concentrations. The measurements were performed in a 1 cm cuvette using Fluoromax-3 fluorometer; at an excitation wavelength of 560 nm. Cresyl violet was dissolved in methanol and Compound 1 in PBS 7.4 (just generating QCy7).
(§3) FIG. 8 presents the data obtained for fluorescence intensity vs. wavelength of standard sample (QCy7; FIG. 8A), and test sample (Sulfo-QCy7, generated from Compound 9; FIG. 8B), at the indicated concentrations. The measurements were performed at a 96-wells plate reader using Fluoromax-3 fluorometer; at an excitation wavelength of 560 nm. Both samples were dissolved in PBS 7.4.

[5] = Fluorescence quantum yield calculation against a reference dye; type: physicochemical; details: PBS 7.4
Procedure: Cresyl-violet-perchlorate (as presented hereinbelow) was chosen as a reference compound for the determination of QCy7 quantum yield.
as §2
Conversion to the absolute quantum yield is achieved through the following equation: ΦX=ΦST(GradX/GradST)(η^2X/η^2ST) where the subscripts ST and X denote standard and test respectively, Φ is the fluorescence quantum yield, Grad the gradient from the plot of integrated fluorescence intensity vs. absorbance (see, FIG. 6), and η the refractive index of the solvents. ΦCresyl-violet=0.55 [Stefan et al. ([…]) J. Phys. Chem. 86, 1738-1742].
QCy7 was chosen as a reference compound for the determination of Sulfo-QCy7 quantum yield.
as §3
The absolute quantum yield was calculated as described hereinabove and found to be: […]

[6] = Aqueous stability in PBS 7.4 at 37° C., NIR emission over 72 hours; type: physicochemical; details: PBS 7.4 [25 μM]
Procedure: The aqueous stability of the cyanine-like dye compound presented herein was tested and compared to that of the cyanine molecule Cy7.
All tested compounds were incubated in PBS 7.4 [25 μM], at 37° C., and their NIR fluorescent emission was monitored over 72 hours. FIG. 15 presents the normalized intensity of NIR fluorescent emission of dyes generated from Compound 9 (green circles; Sulfo-QCy7), Compound 14 (blue diamonds), Compound 18 (red squares), Compound 25 (orange triangles) and Compound 1 (blank navy squares; QCy7) as a function of incubation time.

[7] = UV-Vis absorption spectrum of dye compounds; type: physicochemical
Source text: as §1
Compound 14 is composed from a phenol latent donor and two different acceptors; a picolinium moiety and an indolium moiety (see, Scheme 3). Deprotonation of the phenolic dye leads to formation of new donor-acceptor pair fluorochrome.
Compound 18 is composed of a phenol latent donor and two identical acceptors based on a picolinium moiety (see, Scheme 4). Deprotonation of the phenolic form leads to formation of new donor-acceptor pair fluorochrome.
Compound 25 is composed of a phenol latent donor and three acceptors; two picolinium moieties and one indolium moiety (see, Scheme 5). Deprotonation of the phenolic compound leads to formation of three resonance donor-two-acceptor structures of new fluorochrome.
The chemical 2D structures and spectroscopic data obtained for exemplary dye molecules according to embodiments of the present invention are presented in Table 1.

[8] = pKa measurement by UV-Vis absorbance as a function of pH; type: physicochemical; details: buffers at the indicated pH; 50 μM in buffers, phenol form
Procedure: The pKa values of exemplary compounds according to some embodiments of the present invention, Compounds 14, 18 and 25, was measured by monitoring their UV-Vis absorbance as a function of the environment pH. The tested compounds, at a concentration of 50 μM were dissolved in the respective buffers at the indicated pH and their absorbance was measured.

HeLa cells [9] = assay: Two-photon excitation with NIR laser in HeLa cells; type: cell-based; details: incubated with HeLa cells and PBS 7.4
Procedure: Fluorescent dyes, which absorb at wavelengths of 350-550 nm, can be excited in NIR region with a two-photon laser.
Compound 25 was incubated with HeLa cells and PBS 7.4.

[10] = in methanol; Stefan et al. 1992; cited from earlier work

extinction coefficient ε ([1]; PBS 7.4, 1 cm cuvette, at maximum wavelength (QCy7 560 nm, Sulfo-QCy7 590 nm)) [M⁻¹ cm⁻¹]	extinction coefficient ([1]; rounded value)	appearance under NIR imaging camera [3]	fluorescence emission peak in the NIR region [4] [nm]	λmax [4] [nm]	quantum yield [5] [%]	UV-Vis absorption peak maximum ([7]; PBS 7.4)	λmax ([7]; Table 1, first λmax column (absorption peaks)) [nm]	pKa [8]	two-photon excitation spectrum wavelengths (HeLa cells [9])	Structure (SMILES)	fluorescence inside vs outside the cells (HeLa cells [2]; HeLa cells incubated overnight, PBS 7.4)	aqueous stability compared with Cy7 [6]	cellular localization (colocalization with lysosensor) (HeLa cells [2]; HeLa cells, excitation 561 nm, 570-800 nm)	chemical stability in cell-medium (HeLa cells [2]; overnight incubation with cells)	NIR fluorescence under acidic condition of the lysosome (HeLa cells [2]; pH of about 5)	fluorescence quantum yield of reference [10]
52235	52,000 mol^−1 cm^−1	exhibits well-observed NIR fluorescence	720	710	16					CC1(C)C(/C=C/c2ccc(O)c(/C=C/C3=[N+](CCCS(=O)(=O)[O-])c4ccccc4C3(C)C)c2)=[N+](CCCS(=O)(=O)[O-])c2ccccc21 [Compound 9]	higher fluorescence inside the cells					
			680	650	16	330 nm and 550 nm	550	5.4	800-1000 nm	C[n+]1ccc(/C=C/c2cc(/C=C/C3=[N+](CCCS(=O)(=O)O)c4ccccc4C3(C)C)cc(/C=C/c3cc[n+](C)cc3)c2O)cc1 [Compound 25]		increase aqueous stability than that of Cy7	accumulation of the dye in the lisosomal vesicles indicates cell-penetration through endocytosis mechanism	chemical stability after overnight in cell-medium	emitted NIR fluorescence even under the acidic condition of the lysosome	
										N=c1cc2oc3cc(N)ccc3nc-2c2ccccc12.[O-][Cl+3]([O-])([O-])O [Cresyl-violet, Cresyl-violet-perchlorate]						0.55
